Test results: patent publication US20080070939A1, “LOCAL […] COMPOSITIONS CONTAINING DEXTROROTATORY MORPHINAN DERIVATIVES OR PHARMACEUTICALLY ACCEPTABLE SALTS THEREOF” (CHI MEI FOUNDATION HOSPITAL, priority 2006, published 2008)

Key:
[1] = system: Male Sprague-Dawley rats; experiment: Infiltrative cutaneous anesthesia (inhibition of cutaneous trunci muscle reflex, CTMR) after subcutaneous injection in rats; format: in vivo
Experimental: Male Sprague-Dawley rats (weighing about 200 to 250 g); for each dose of each drug, n=8.
In brief, hairs on the dorsal surface (about 10×10 cm^2) of the thoracolumbar region of the rat were shaved, and the shaved surface was sterilized with iodine for preparation. To reduce the number of animals used, the back of the rat was further divided into left and right parts. One drug was injected first at the right part. After a washout period of one week, another drug was injected at the left part.
0.6 mL of drug was injected subcutaneously under the dorsal surface of the thoracolumbar region of the rat using a 30-gauge needle attached to a syringe (Becton Drive, Franklin Lakes, USA). The subcutaneous injection would result in a circular elevation (i.e., a wheal) of the skin, about 2 cm in diameter. The elevation was marked with ink within 1 minute after injection.
CTMR refers to the reflex movement of the skin of the back caused by twitching of the lateral thoracispinal muscle in response to local dorsal cutaneous stimulation. Essentially, a von Frey filament (No.15; Somedic Sales AB, Sweden) to which a cut end of an 18-gauge needle was affixed was used to produce a standard nociceptive stimulus (strength: 19 g). Six pinpricks (at a frequency of 0.5-1 Hz) were applied to a single marked wheal during each test. […] For example, absence of any response to all of the 6 pinpricks was defined as a complete nociceptive block (i.e., 100% MPE).
The difference resided in that subcutaneous injections of ED25, ED50 and ED75 of the drugs were performed based on the method described in the section “A. Drug injection” of this example, and evaluation of the infiltrative cutaneous anesthetic effect was performed based on the method described in the section “B. Neurobehavioral evaluation” of this example.

[2] = system: rats; experiment: Systemic safety indices: mortality 24 hours after intraperitoneal injection in rats; details: intraperitoneal injection, rats, mortality after 24 hours
Experimental: Essentially, each drug was injected intraperitoneally into the rats (n=8). The number of dead rats was observed after 24 hours, and the rate of mortality (%) was calculated. Thereafter, the doses of each drug and the relative mortality were plotted to obtain dose-mortality curves of the drugs. […] The safety index (LD50/ED50) of each drug was calculated using the LD50 thus obtained and the ED50 obtained in the section “C. Potency evaluation” of this example.

[3] = system: Male Sprague-Dawley rats; experiment: Spinal anesthetic effect (spinal blockade) after intrathecal injection in rats; format: in vivo; parameters: AUC of time-% PE curve, spinal blockade of motor function / AUC of time-% PE curve, spinal blockade of proprioception / AUC of time-% PE curve, spinal blockade of nociceptive reaction: unit not given beside the values
Experimental: (§1) Male Sprague-Dawley rats (weighing about 300 to 350 g); for each dose of each drug, n=6.
In brief, for preparation, the hairs on the back of each rat were shaved, and the shaved back was sterilized with iodine.
After three minutes, 50 μL of each of the tested drugs was injected via a 27-gauge needle attached to a 100-μL syringe (Hamilton, Reno, Nev.) into the intrathecal space between the fourth and fifth lumbar vertebrae. The development of spinal blockade was observed from the paralysis of the hind limbs of the rats.
The magnitude of nerve block (including blocking of motor function, proprioception, and nociceptive reaction) was expressed as the percentage of possible effect (hereinafter referred to as % PE), and the maximal value of % PE was expressed as the percentage of maximal possible effect (hereinafter referred to as % MPE).
Motor function was evaluated by measuring the extensor postural thrust of the right hind limbs of the rats using a digital platform balance (Mettler Toledo, Switzerland, model PB1502-S). To test the extensor postural thrust, the rat was held upright with the hind limb extended, so that the body weight of the rat was supported by the distal metatarsus and toes. The extensor postural thrust could be measured as the force of the right hind limb of the rat thrusting the platform balance.
A reduction in the force, resulting in extensor muscle tone, was considered as a motor deficit. A force less than 20 g (i.e., a weight of the “flaccid limb”) was considered absence of an extensor postural thrust or 100% motor block or 100% MPE.
Proprioception was evaluated based on resting posture and postural reactions (including tactile placing and hopping). First, the front half of the rat body and one of the hind limbs were lifted off the ground at the same time so that the rat was standing on one hind limb. Then, the rat was moved laterally, which normally evoked a prompt hopping response of the weight-bearing hind limb of the rat in the direction of movement so as to avoid falling. A predominantly proprioceptive block caused a delayed hopping followed by greater lateral hops. […] Functional deficits were classified into four grades: 3 (normal or 0% MPE), 2 (slightly impaired), 1 (severely impaired), and 0 (completely impaired or 100% MPE).
Nociceptive reaction was evaluated by the withdrawal reflex or vocalization elicited by the pinch of a skin fold over the back at 1 cm near the proximal part of the tail, the lateral metatarsus of the bilateral hind limbs, and the dorsal part of the mid-tail. At each testing time, only one pinch was given to each of the abovementioned four testing sites, and the time interval between stimulations at different sites was around 2 seconds. Nociceptive reactions were classified into five grades: 4 (normal or 0% MPE), 3 (25% MPE), 2 (50% MPE), 1 (75% MPE), and 0 (absent or 100% MPE).
The potency of each drug on spinal blockades was compared using ED50.
Duration was defined as the interval from injection of the tested drugs to complete recovery. The ED25, ED50 and ED75 obtained according to the SAS NLIN analysis in the preceding section “C. Potency evaluation” were used in this experiment.
Regarding the method of evaluating the effect of co-administration, dextromethorphan hydrobromide monohydrate was used as an example.
After the tests, the time of measurement of each drug and its corresponding % PE were plotted to obtain the time-% PE curves of each drug. The area under the curve (AUC) of time-% PE was calculated using the trapezoidal rule, and was used to evaluate the effect of the co-administration of the drugs.
Statistical software, SPSS for Windows® (version 10.0.7) was used. Data were represented as mean±SEM.

[4] = system: sciatic nerve; experiment: Sciatic nerve blockade after injection at the sciatic nerve notch in rats; format: in vivo; parameters: AUC of time-% PE curve, sciatic nerve blockade of motor function / AUC of time-% PE curve, sciatic nerve blockade of proprioception / AUC of time-% PE curve, sciatic nerve blockade of nociceptive reaction: unit not given beside the values; details: rats
Experimental: as §1
In brief, the rats were slightly anesthetized by inhalation of a low concentration of sevoflurane. Then, 200 μL of tested drugs were injected at the sciatic nerve notch at the left hind limb of the rat using a 27-gauge needle connected to a tuberculin syringe (Becton Dickinson, USA, model BND309623-BX). Thereafter, development of sciatic nerve blockade was observed from the paralysis of the left hind limb of the rat. The right hind limb served as a control during the subsequent functional assay
For proprioception, the front half of the rat body and the right hind limb were off the ground at the same time so that the rat was standing on the left hind limb during the measurement.
The differences resided in that: The sciatic nerve notch injections of ED25, ED50 and ED75 were conducted based on the method described in the preceding section “A. Drug injection” of this example. Evaluations of motor function, proprioception and nociceptive reaction were conducted based on the method described in section “B. Neurobehavioral evaluations” of this example.
The differences resided in that: Before the statistical analysis, Shapiro-Wilk test was used to evaluate whether the data were, theoretically, normally distributed.

[5] = infiltrative cutaneous anesthesia, rats, 2ED50 when administered independently, ED50 for co-administration, mean ± SEM
[6] = infiltrative cutaneous anesthesia, subcutaneous injection, rats
[7] = subcutaneous dose of ED75, rats, mean±SEM
[8] = intrathecal, rats, 2 ED50 when administered independently, ED50 of each drug when co-administered, mean ± SEM
[9] = spinal blockade, mean of motor function, proprioception and nociceptive reaction, intrathecal, rats
[10] = 2ED50 when administered independently, ED50 of each drug when co-administered, mean ± SEM

Dextrorphan tartrate
% MPE [1, 5]: 73 ± 11 % MPE | AUC (% min.) [1, 5]: 3200 ± 690 % min. | Duration [1, 5]: 63 ± 7 min | ED25 [1, 6]: 4.03 mg/kg | ED50 (95% CI) [1, 6]: 5.66 (5.17–6.21) mg/kg | ED75 [1, 6]: 7.97 mg/kg | duration of cutaneous anesthesia compared with lidocaine hydrochloride ([1]; same effective doses (ED25, ED50 or ED75), rats): longer duration | % MPE of cutaneous nociceptive block [1, 7]: 73±7 % MPE | duration of cutaneous nociceptive block [1, 7]: ~48 ± 3 min | effect of co-administration with lidocaine hydrochloride on cutaneous nociceptive blockade ([1]; subcutaneous, rats, ED50 of each drug): additive effect | LD50 (95% CI) [2]: 307 (257–369) mg/kg | % MPE of spinal blockades of motor function, proprioception and nociceptive reaction (range over the three functions) ([3]; intrathecal dose of ED75, rats): 62-77 % MPE | duration of spinal blockades of motor function, proprioception and nociceptive reaction (range over the three functions) ([3]; intrathecal dose of ED75, rats): 30 to 65 min | effect of co-administration with bupivacaine hydrochloride on spinal blockade ([3]; intrathecal, rats, ED50 of each drug): synergistic effect | AUC of time-% PE curve, spinal blockade of motor function [3, 8]: 1447 ± 163 | AUC of time-% PE curve, spinal blockade of nociceptive reaction [3, 8]: 4332 ± 382 | Motor function ED50 (95% CI) ([3]; spinal blockade of motor function, intrathecal injection, rats): 0.40 (0.39–0.42) mg | Nociceptive reaction ED50 (95% CI) ([3]; spinal blockade of nociceptive reaction, intrathecal injection, rats): 0.28 (0.26–0.30) mg | Proprioception ED50 (95% CI) ([3]; spinal blockade of proprioception, intrathecal injection, rats): 0.32 (0.30–0.35) mg | Mean value ED25 [3, 9]: 0.25 mg | Mean value ED50 [3, 9]: 0.33 mg | Mean value ED75 [3, 9]: 0.45 mg | effect of co-administration with lidocaine hydrochloride on sciatic nerve blockades ([4]; ED50 of each drug): additive effect | AUC of time-% PE curve, sciatic nerve blockade of motor function [4, 10]: 7077 ± 429 | AUC of time-% PE curve, sciatic nerve blockade of nociceptive reaction [4, 10]: 8786 ± 915 | AUC of time-% PE curve, sciatic nerve blockade of proprioception [4, 10]: 7357 ± 558 | duration of sciatic nerve blockade compared with lidocaine hydrochloride ([4]; same effective doses (ED25, ED50 or ED75)): longer reaction duration | Motor function ED50 (95% CI) ([4]; sciatic nerve blockade of motor function): 14.66 (13.78–15.58) mg/kg | Nociceptive reaction ED50 (95% CI) ([4]; sciatic nerve blockade of nociceptive reaction): 13.38 (12.37–14.47) mg/kg | Proprioception ED50 (95% CI) ([4]; sciatic nerve blockade of proprioception): 14.52 (13.40–15.73) mg/kg | Mean ED50 ([4]; sciatic nerve blockade, mean of motor function, proprioception and nociceptive reaction): 14.19 mg/kg
